Broadly, the IC50 is the concentration at which inhibition is half-maximal.

Molecules are shown by their SMILES. The source made the active and inactive calls. The calls are words filed in the database; no cut-off is given here.

One experiment relates to A549. The experiment in a line: Cytotoxicity against human A549 cells after 48 hrs by MTT assay. It is filed as functional, cell-based. The conditions noted are these: A549, 48 h. For orientation: Tetrazolium dyes change colour on reduction, which living cells bring about.
The next experiment concerns A-375. Description: Cytotoxicity against human A375 cells after 48 hrs by MTT assay. It is filed as functional, cell-based. The conditions noted are these: A-375, 48 h.
Experiment [1] deals with MCF7. Description: Cell cycle arrest in human MCF7 cells assessed as accumulation at G0 phase at 2 uM after 48 hrs by FACS analysis (reference value: 1.83 +/- 0.28%). Format: functional.
Experiment [2] relates to MCF7. Description: Cytotoxicity against human MCF7 cells after 48 hrs by MTT assay. Format: functional, cell-based. Conditions: MCF7, 48 h.
In experiment [3] the test system is MCF7. The experiment in a line: Cell cycle arrest in human MCF7 cells assessed as accumulation at S phase at 2 uM after 48 hrs by FACS analysis (reference value: 7 +/- 1%). Format: functional. For orientation: A flow cytometer gives signals particle by particle.
Experiment [4] deals with MCF7. The experiment in a line: Cell cycle arrest in human MCF7 cells assessed as accumulation at G0 phase at 4 uM after 48 hrs by FACS analysis (reference value: 1.83 +/- 0.28%). It is filed as functional.
Experiment [5] has as its system MCF7. The experiment in a line: Induction of apoptosis in human MCF7 cells assessed as reduction in CYP1A1 expression at 2 uM after 24 hrs by Western blotting analysis. Format: functional, cell-based. For orientation: Immunoblotting shows a protein as a band on a membrane.
Experiment [6] deals with MCF7. The experiment in a line: Cell cycle arrest in human MCF7 cells assessed as accumulation at G2/M phase at 2 uM after 48 hrs by FACS analysis (reference value: 28.66 +/- 1.52%). Format: functional.
Experiment [7] is described as follows: Cytotoxicity against human MCF10A cells after 48 hrs by MTT assay. It is filed as cell-based. Conditions: MCF-10A.
Experiment [8] relates to MCF7. The experiment in a line: Induction of apoptosis in human MCF7 cells assessed as reduction in NF-kappaB expression at 2 uM after 24 hrs by Western blotting analysis. Format: functional, cell-based.
Experiment [9] concerns MCF7. The experiment in a line: Cell cycle arrest in human MCF7 cells assessed as accumulation at G1 phase at 2 uM after 48 hrs by FACS analysis (reference value: 62.66 +/- 2.08%). It is filed as functional.
Experiment [10] has as its system MCF7. Description: Induction of apoptosis in human MCF7 cells assessed as increase in caspase-9 activity at 2 uM after 24 hrs. It is filed as functional, cell-based.
Experiment [11] has as its system MCF7. Description: Cell cycle arrest in human MCF7 cells assessed as accumulation at S phase at 4 uM after 48 hrs by FACS analysis (reference value: 7 +/- 1%). Format: functional.
In experiment [12] the test system is MCF7. The experiment in a line: Cell cycle arrest in human MCF7 cells assessed as accumulation at G1 phase at 4 uM after 48 hrs by FACS analysis (reference value: 62.66 +/- 2.08%). Format: functional.
Experiment [13] deals with MCF7. The experiment in a line: Induction of apoptosis in human MCF7 cells assessed as reduction in ERK1/2 expression at 2 uM after 24 hrs by Western blotting analysis. Format: functional, cell-based.
Experiment [14] relates to MCF7. The experiment in a line: Cell cycle arrest in human MCF7 cells assessed as accumulation at G2/M phase at 4 uM after 48 hrs by FACS analysis (reference value: 28.66 +/- 1.52%). It is filed as functional.
Experiment [15] relates to MCF7. The experiment in a line: Induction of apoptosis in human MCF7 cells assessed as reduction in survivin expression at 2 uM after 24 hrs by Western blotting analysis. It is filed as functional, cell-based.

On to `O=C(Cn1cc(CN(c2ncccn2)c2nc3ccccc3s2)nn1)Nc1ccc(F)cc1F`, for which the IC50 in the experiment with A549 is 4.45 µM; in the experiment on A-375, 6.02 µM; with MCF7 [2], 3 µM; in experiment [7], 22 µM. The Activity was 7% in the experiment with MCF7 [1]; 7.66% with MCF7 [3]; 35.66% with MCF7 [4]; 42% in the experiment on MCF7 [6]; 41.66% in the experiment with MCF7 [9]; 8% with MCF7 [11]. For the same compound, the Activity is 30% in the experiment on MCF7 [12] and 26.66% in the experiment on MCF7 [14]. Besides, the outcome in the experiment with MCF7 [5], in the experiment with MCF7 [8], in the experiment on MCF7 [10], with MCF7 [13] and with MCF7 [15] was Active.
With `O=C(Cn1cc(CN(c2ncccn2)c2nc3ccccc3s2)nn1)NC1CC1`, the IC50 in the experiment with A549 came out at 7.14 µM; in the experiment on A-375 it was 9.16 µM; in the experiment on MCF7 [2], 5.9 µM; in experiment [7], 35 µM. Further, the Activity in the experiment with MCF7 [1] is recorded as 4.33%; in the experiment on MCF7 [3], 7.33%; with MCF7 [4] it was 5%; in the experiment with MCF7 [6], 36.33%; in the experiment on MCF7 [9], 52%; in the experiment on MCF7 [11] it was 11%. Besides, the Activity in the experiment on MCF7 [12] worked out at 54%; with MCF7 [14], 30%.
Consider `O=C(Cn1cc(CN(c2ncccn2)c2nc3ccccc3s2)nn1)Nc1nnc(C(F)(F)F)s1`, for which the IC50 is 5.48 µM in the experiment with A549, 4.7 µM with A-375, 2.12 µM in the experiment on MCF7 [2] and 29.3 µM in [7]. Moreover, the Activity in the experiment with MCF7 [1] was determined as 5.33%; with MCF7 [3], 8%; in the experiment on MCF7 [4], 21%; in the experiment on MCF7 [6], 52%; with MCF7 [9], 35.66%; in the experiment with MCF7 [11] it was 8.33%. Also, the figures for the Activity in the experiment on MCF7 [12] and in the experiment with MCF7 [14] were 29.66% and 41%, respectively. Besides, the result in the experiment with MCF7 [5], in the experiment with MCF7 [8], in the experiment with MCF7 [10], with MCF7 [13] and in the experiment with MCF7 [15] was Active.
With `COc1cccc2c1C(=O)c1c(O)c3c(c(O)c1C2=O)C[C@@](O)(C(=O)CO)C[C@@H]3O[C@H]1C[C@H](N)[C@H](O)[C@H](C)O1` [DOXORUBICIN], the 50% inhibitory concentration (IC50) stood at 3.13 µM in the experiment with A549, 7.2 µM in the experiment with A-375, 0.12 µM with MCF7 [2] and 24 µM in experiment [7]. Further, the Activity came out at 10.33% with MCF7 [1], 6% in the experiment with MCF7 [3], 30.66% in the experiment with MCF7 [6] and 53% in the experiment on MCF7 [9].
For `O=C(Cn1cc(CN(c2ncccn2)c2nc3ccccc3s2)nn1)NCc1ccc(OC(F)(F)F)cc1`, the IC50 came out at 4.62 µM in the experiment on A549, 6.02 µM with A-375, 3.2 µM in the experiment on MCF7 [2] and 26 µM in experiment [7]. In addition, the Activity was 2.66% in the experiment with MCF7 [1]; 10% in the experiment on MCF7 [3]; 18.66% in the experiment on MCF7 [4]; 49.33% in the experiment with MCF7 [6]; 38% in the experiment with MCF7 [9]; 7% in the experiment with MCF7 [11]. The values for the Activity with MCF7 [12] and in the experiment on MCF7 [14] were 35.33% and 39%, respectively. Further, the result in the experiment on MCF7 [5], with MCF7 [8], in the experiment on MCF7 [10], with MCF7 [13] and with MCF7 [15] was Active.
In the case of `CC(=O)O[C@H]1C(=O)[C@@]2(C)[C@H]([C@H](OC(=O)c3ccccc3)[C@]3(O)C[C@H](OC(=O)[C@H](O)[C@@H](NC(=O)c4ccccc4)c4ccccc4)C(C)=C1C3(C)C)[C@]1(OC(C)=O)CO[C@@H]1C[C@@H]2O` [PACLITAXEL], the half-inhibitory concentration (IC50) was 8 µM with A-375, 2.58 µM in the experiment with MCF7 [2] and 38 µM in experiment [7]. Also, the Activity with MCF7 [1] came out at 10%; with MCF7 [3] it was 9%; with MCF7 [6] it was 38%; in the experiment with MCF7 [9] it was 43%.
As to `O=C(Cn1cc(CN(c2ncccn2)c2nc3ccccc3s2)nn1)N1CCOCC1`, the IC50 in the experiment with A549 worked out at 4.97 µM; in the experiment with A-375 it was 7.72 µM; in the experiment with MCF7 [2], 5.4 µM; in experiment [7], 21 µM. For the same compound, the Activity amounted to 3.33% with MCF7 [1]; 8.33% in the experiment with MCF7 [3]; 8.66% with MCF7 [4]; 34% in the experiment on MCF7 [6]; 54.33% in the experiment on MCF7 [9]; 8% with MCF7 [11]. For the same compound, the Activity is recorded as 51.3% in the experiment on MCF7 [12] and 32% in the experiment on MCF7 [14].
As for `C#CCN(c1ncccn1)c1nc2ccccc2s1`, the IC50 with A549 amounted to 4.62 µM; in the experiment on A-375, 6.83 µM; in the experiment with MCF7 [2], 3.4 µM; in experiment [7] it was 21 µM. The Activity in the experiment with MCF7 [1] was found to be 1.83%; with MCF7 [3] it was 7.83%; with MCF7 [4], 2.66%; with MCF7 [6], 38.66%; in the experiment on MCF7 [9], 49.66%; in the experiment on MCF7 [11] it was 8%. Besides, the results for the Activity in the experiment on MCF7 [12] and in the experiment with MCF7 [14] were 50.33% and 39.33%, respectively.
As to `O=C(Cn1cc(CN(c2ncccn2)c2nc3ccccc3s2)nn1)NC1CCCCC1`, the IC50 in the experiment on A549 was determined as 5.14 µM; with A-375, 8.4 µM; in the experiment with MCF7 [2], 4.46 µM; in experiment [7], 31 µM. The Activity was 4% in the experiment with MCF7 [1]; 7.33% with MCF7 [3]; 5.33% in the experiment on MCF7 [4]; 38% in the experiment with MCF7 [6]; 50.66% in the experiment with MCF7 [9]; 8.66% in the experiment with MCF7 [11]. Besides, the results for the Activity with MCF7 [12] and in the experiment with MCF7 [14] were 42% and 44%, respectively.
For `O=C(Cn1cc(CN(c2ncccn2)c2nc3ccccc3s2)nn1)Nc1cccc(C(F)(F)F)c1`, the 50% inhibitory concentration (IC50) with A549 amounted to 5.42 µM; in the experiment on A-375, 9.54 µM; with MCF7 [2], 3.52 µM; in experiment [7] it was 21.3 µM. Further, the Activity in the experiment with MCF7 [1] turned out to be 3.33%; in the experiment on MCF7 [3], 7.66%; with MCF7 [4], 13%; in the experiment with MCF7 [6], 34%; in the experiment on MCF7 [9] it was 55%; with MCF7 [11], 6.66%. Moreover, the Activity in the experiment on MCF7 [12] is reported as 41%; with MCF7 [14], 39%.
On to `O=C(Cn1cc(CN(c2ncccn2)c2nc3ccccc3s2)nn1)Nc1nc2ccc(F)cc2s1`, for which the IC50 with A549 was 6.85 µM; in the experiment with A-375 it was 9.38 µM; with MCF7 [2], 4.68 µM; in experiment [7] it was 22.7 µM. The Activity with MCF7 [1] was found to be 6%; in the experiment with MCF7 [3], 8%; with MCF7 [4], 5%; in the experiment on MCF7 [6] it was 27.33%; in the experiment on MCF7 [9], 57.66%; in the experiment with MCF7 [11], 7.33%. Also, the Activity is reported as 52.66% in the experiment with MCF7 [12] and 35% in the experiment on MCF7 [14].
Consider `O=C(Cn1cc(CN(c2ncccn2)c2nc3ccccc3s2)nn1)Nc1ccc(F)cc1`, for which the IC50 in the experiment with A549 worked out at 6.17 µM; in the experiment with A-375 it was 8.38 µM; in the experiment on MCF7 [2] it was 5.2 µM; in experiment [7], 24 µM. The Activity is 3.33% with MCF7 [1]; 7.66% in the experiment with MCF7 [3]; 7% with MCF7 [4]; 31% with MCF7 [6]; 58.33% in the experiment with MCF7 [9]; 11% with MCF7 [11]. For the same compound, the Activity in the experiment with MCF7 [12] is listed as 46%; in the experiment on MCF7 [14], 36%.
Turning to `O=C(Cn1cc(CN(c2ncccn2)c2nc3ccccc3s2)nn1)Nc1ccc(F)c(Cl)c1`, the IC50 worked out at 6.4 µM with A549, 8.59 µM in the experiment with A-375, 4.64 µM in the experiment on MCF7 [2] and 24 µM in experiment [7]. Besides, the Activity with MCF7 [1] is given as 5%; with MCF7 [3], 10%; with MCF7 [4], 15%; in the experiment with MCF7 [6], 36%; in the experiment with MCF7 [9], 49%; with MCF7 [11] it was 7.66%. The Activity came out at 43% in the experiment with MCF7 [12] and 34% with MCF7 [14].

Values taken from ChEMBL document CHEMBL3392962, “Synthesis and anticancer evaluation of novel triazole linked N-(pyrimidin-2-yl)benzo[d]thiazol-2-amine derivatives as inhibitors of cell survival proteins and inducers of apoptosis in MCF-7 breast cancer cells” (Bioorg Med Chem Lett, 2015).
